The test system of assay [1] is ACC (acetyl-CoA carboxylase). The experiment in a line: p-ACC expression level in L6 cell line by Western blot. The assay is classed as cell-based. Particulars: Rattus norvegicus, L6 cells, 2 hours compound treatment, read-out: Activity AC1.3 (ACCp). The procedure: (§1) Evaluation of p-AMPK and p-ACC expression level in L6 cell line by Western-Blot
(§2) This method evaluates the changes of AMP-activated protein kinase (AMPK) and ACC (acetyl-CoA carboxylase) activity by small molecular modulators through detecting the level of p-AMPK and p-ACC proteins in L6 cells using Western blot.
(§3) L6 cells are maintained in DMEM medium supplemented with 10% FBS in 10-cm dishes. Prior to compounds treatment, L6 cells are seeded in 12-well-plates at concentration of 3×10^4 cells per well. After 24 hours of incubation in 12-well plates, L6 cells are differentiated by replacing the 10% FBS-DMEM medium with 2% FBS-DMEM. Differentiation usually takes 5 days, during which the culture medium is changed every 2 days.
(§4) The compound concentrations typically range from 32 μM to 0.5 μM with 2-fold dilution in 2 ml DMEM and 7 doses. The final DMSO concentration is 0.4%. Berberine is used as a positive control at concentration of 16 μM. Before compound treatment, starve L6 cells for 2 hours by replacing the medium with DMEM, and then gently aspirate the media from each well. Add the compounds into the plates and incubate at 37 degree 5% CO2 for 2 hours.
(§5) Prepare lysis buffer (RIPA buffer with protease-inhibitors and phosphorate-inhibitors) and place it on ice. After two hour's compound treatment, aspirate the medium from 12-well plates, add 70 ul lysis buffer to each well and keep the plates on ice for 5 min. Then scrape the cell lysate off the plates and transfer it to 1.5 ml eppendorf tubes. Keep the tube on ice for more 10 min, centrifugate the lysate at 13000 rpm, 4 degrees for 15 min and transfer the supernatant to clean tubes.
(§6) Determine protein concentration for each sample using Quickstart Bradford protein quantitation kit. Mix 20 ug protein sample with 4 times loading buffer, heat them at 100° C. for 5 min, store the sample in −80° C. or perform Western blot assay directly. For Western blot assay, load 20 ug samples and 10 ul Pre-stained Protein Maker into 4-12% SDS-PAGE gradient gel. Run the samples at 100 V in the stacking gel and at 120 V in resolving gel until the Bromophenol dye reaches the bottom. Transfer the electrophoresed proteins to a PVDF membrane using Bio-Rad's Transblot for 120 min at 300 mA. Following the completion of transfer, the membrane is blocked with 5% non-fat milk for 2 hours at room temperature before incubated with primary antibody (p-AMPK and p-ACC) at 4° C. overnight. On the next day wash the membrane twice with TBST, add secondary antibody and incubate for 1 hour at room temperature. Wash the membrane twice with TBST. Develop p-AMPK and p-ACC protein expression level on the film in dark room with Amersham ECL plus kit. The bands of each sample are quantitated by Bio-Rad system, The AC1.3 value is analyzed using Prism 5.0.
(Immunoblotting shows a protein as a band on a membrane.)

Assay [2] has as its system AMP-activated protein kinase (AMPK). Kind of assay: p-AMPK expression level in L6 cell line by Western blot. The assay is classed as cell-based. Particulars: L6 cells, 2 hours compound treatment. The procedure: as §1, §2, §3, §4, §5, §6

Take `CC1(C)CC(c2cc(F)cc(N3CCOCC3)c2)Nc2ccc(C(=O)NS(C)(=O)=O)cc21` (centres unmarked) [Example 4, N-[2-(3-fluoro-5-morpholin-4-yl-phenyl)-4,4-dimethyl-1,2,3,4-tetrahydro-quinoline-6-carbonyl]-methanesulfonamide]: the EC (1.3-fold) in assay [1] was determined as 6.23 µM. The “Activity AC1.3 (AMPKp)” value in assay [2] worked out at 6.76 µM.
For `CC1(C)CC(c2cccc(N3CCOCC3)c2)Nc2ccc(S(=O)(=O)N3CCOCC3)cc21` (centres unmarked) [Example 12, 4,4-Dimethyl-6-(morpholine-4-sulfonyl)-2-(3-morpholin-4-yl-phenyl)-1,2,3,4-tetrahydro-quinoline], the EC (1.3-fold) in assay [1] worked out at 1.86 µM. Moreover, in assay [2], the “Activity AC1.3 (AMPKp)” value turned out to be 5.70 µM.
For the compound `CC1(C)CC(c2cccc(N3CCOCC3)c2)Nc2ccc(S(=O)(=O)NC3CCC3)cc21` (centres unmarked) [Example 15, 4,4-Dimethyl-2-(3-morpholin-4-yl-phenyl)-1,2,3,4-tetrahydro-quinoline-6-sulfonic acid cyclobutylamide], the EC (1.3-fold) in assay [1] turned out to be 0.1 µM. Also, the “Activity AC1.3 (AMPKp)” value in assay [2] came to 0.1 µM.
`CC1(C)CC(c2cc(F)cc(N3CCOCC3)c2)Nc2ccc(S(=O)(=O)NC3CCC3)cc21` (centres unmarked) [Example 16, 2-(3-Fluoro-5-morpholin-4-yl-phenyl)-4,4-dimethyl-1,2,3,4-tetrahydro-quinoline-6-sulfonic acid cyclobutylamide]: the EC (1.3-fold) in assay [1] amounted to 3.21 µM. Moreover, the “Activity AC1.3 (AMPKp)” value in assay [2] was determined as 19.4 µM.
For `CC1(C)CC(c2cccc(-c3ccccc3O)c2)Nc2ccc(S(=O)(=O)NC3CCC3)cc21` (centres unmarked) [Example 17, 2-(2′-Hydroxy-biphenyl-3-yl)-4,4-dimethyl-1,2,3,4-tetrahydro-quinoline-6-sulfonic acid cyclobutylamide] the same measures were 0.05 µM and 0.41 µM.
On the same counts, the results for `CC1(C)CC(c2cccnc2)Nc2ccc(C(=O)NS(C)(=O)=O)cc21` (centres unmarked) [Example 18, N-(4,4-dimethyl-2-pyridin-3-yl-1,2,3,4-tetrahydro-quinoline-6-carbonyl)-methanesulfonamide] are 20 µM and 7.98 µM.
For `Cc1ccc(N2CCOCC2)cc1C1CC(C)(C)c2cc(C(=O)NS(C)(=O)=O)ccc2N1` (centres unmarked) [Example 22, N-[4,4-dimethyl-2-(2-methyl-5-morpholin-4-yl-phenyl)-1,2,3,4-tetrahydro-quinoline-6-carbonyl]-methanesulfonamide] the same measures were 0.16 µM and 0.02 µM.
In the case of `CC(C)(C)c1ccc(-c2cccc(C3CC(C)(C)c4cc(C(=O)NS(=O)(=O)C5CC5)ccc4N3)c2)cc1` (centres unmarked) [Example 40, Cyclopropanesulfonic acid [2-(4′-tert-butyl-biphenyl-3-yl)-4,4-dimethyl-1,2,3,4-tetrahydro-quinoline-6-carbonyl]-amide], the EC (1.3-fold) in assay [1] turned out to be 6.17 µM. Also, the “Activity AC1.3 (AMPKp)” value in assay [2] is 6.6 µM.
On the same counts, the results for `Cc1ccc(N2CCN(c3cncc(C4CC(C)(C)c5cc(C(=O)NS(C)(=O)=O)ccc5N4)c3)CC2)c(C)c1` (centres unmarked) [Example 49, N-(2-{5-[4-(2,4-dimethyl-phenyl)-piperazin-1-yl]-pyridin-3-yl}-4,4-dimethyl-1,2,3,4-tetrahydro-quinoline-6-carbonyl)-methanesulfonamide] are 6.93 µM and 0.15 µM.
For the compound `Cc1ccc(N2CCN(c3cccc(C4CC(C)(C)c5cc(C(=O)NS(C)(=O)=O)ccc5N4)c3)CC2)c(C)c1` (centres unmarked) [Example 53, N-(2-{3-[4-(2,4-dimethyl-phenyl)-piperazin-1-yl]-phenyl}-4,4-dimethyl-1,2,3,4-tetrahydro-quinoline-6-carbonyl)-methanesulfonamide], in assay [1], the EC (1.3-fold) worked out at 11.7 µM. Besides, the “Activity AC1.3 (AMPKp)” value in assay [2] was 4.79 µM.
For `Cc1ccccc1N1CCN(c2cccc(C3CC(C)(C)c4cc(F)cc(C(=O)NS(C)(=O)=O)c4N3)c2)CC1` (centres unmarked) [Example 57, N-{6-fluoro-4,4-dimethyl-2-[3-(4-o-tolyl-piperazin-1-yl)-phenyl]-1,2,3,4-tetrahydro-quinoline-8-carbonyl}-methanesulfonamide] the same measures were 0.61 µM and 0.85 µM.
For `Cc1ccccc1N1CCN(c2cccc(C3CC(C)(C)c4cc(F)cc(C(=O)NS(=O)(=O)C5CC5)c4N3)c2)CC1` (centres unmarked) [Example 58, Cyclopropanesulfonic acid {6-fluoro-4,4-dimethyl-2-[3-(4-o-tolyl-piperazin-1-yl)-phenyl]-1,2,3,4-tetrahydro-quinoline-8-carbonyl}-amide] the same measures were 0.36 µM and 0.46 µM.
On the same counts, the results for `CC1(C)CC(c2cccc(N3CCN(c4ccccc4F)CC3)c2)Nc2c(C(=O)NS(C)(=O)=O)cc(F)cc21` (centres unmarked) [Example 59, N-(6-fluoro-2-{3-[4-(2-fluoro-phenyl)-piperazin-1-yl]-phenyl}-4,4-dimethyl-1,2,3,4-tetrahydro-quinoline-8-carbonyl)-methanesulfonamide] are 0.74 µM and 7.73 µM.
Take `CC1(C)CC(c2cccc(N3CCCC3)c2)Nc2c(C(=O)NS(=O)(=O)C3CC3)cc(F)cc21` (centres unmarked) [Example 70, Cyclopropanesulfonic acid [6-fluoro-4,4-dimethyl-2-(3-pyrrolidin-1-yl-phenyl)-1,2,3,4-tetrahydro-quinoline-8-carbonyl]-amide]: the EC (1.3-fold) in assay [1] came to 0.57 µM.
In the case of `CC1(C)CC(c2cccc(N3CCCC3)c2)Nc2c(C(=O)NS(=O)(=O)C3CC3)cc(Cl)cc21` (centres unmarked) [Example 72, Cyclopropanesulfonic acid [6-chloro-4,4-dimethyl-2-(3-pyrrolidin-1-yl-phenyl)-1,2,3,4-tetrahydro-quinoline-8-carbonyl]-amide], the EC (1.3-fold) in assay [1] was found to be 3.49 µM. In assay [2], the “Activity AC1.3 (AMPKp)” value stood at 0.14 µM.
Turning to `CC(C)(C)c1ccc(-c2cncc(C3CC(C)(C)c4cc(C(=O)NS(C)(=O)=O)ccc4N3)c2)cc1` (centres unmarked) [Example 73, N-{2-[5-(4-tert-butyl-phenyl)-pyridin-3-yl]-4,4-dimethyl-1,2,3,4-tetrahydro-quinoline-6-carbonyl}-methanesulfonamide], in assay [1], the EC (1.3-fold) worked out at 0.1 µM.
Regarding `CC(C)(C)c1ccc(-c2cncc(C3CC(C)(C)c4cc(C(=O)NS(=O)(=O)C5CC5)ccc4N3)c2)cc1` (centres unmarked) [Example 74, Cyclopropanesulfonic acid {2-[5-(4-tert-butyl-phenyl)-pyridin-3-yl]-4,4-dimethyl-1,2,3,4-tetrahydro-quinoline-6-carbonyl}-amide], the EC (1.3-fold) in assay [1] was 1.67 µM. The “Activity AC1.3 (AMPKp)” value in assay [2] is 0.06 µM.
Take `CN(C(=O)c1ccc2c(c1)C(C)(C)CC(c1cccc(N3CCOCC3)c1)N2)S(=O)(=O)C1CC1` (centres unmarked) [Example 75, Cyclopropanesulfonic acid [4,4-dimethyl-2-(3-morpholin-4-yl-phenyl)-1,2,3,4-tetrahydro-quinoline-6-carbonyl]-methyl-amide]: in assay [1], the EC (1.3-fold) is 0.3 µM.
In the case of `CC1(C)CC(c2cccc(N3CCN(c4ccccc4)CC3)c2)Nc2c(C(=O)NS(=O)(=O)C3CC3)cccc21` (centres unmarked) [Example 76, Cyclopropanesulfonic acid {4,4-dimethyl-2-[3-(4-phenyl-piperazin-1-yl)-phenyl]-1,2,3,4-tetrahydro-quinoline-8-carbonyl}-amide], the EC (1.3-fold) in assay [1] came to 0.57 µM. Also, the “Activity AC1.3 (AMPKp)” value in assay [2] was determined as 3.12 µM.

These data come from patent publication US8809369B2, “Tetrahydroquinoline derivatives” (Hoffmann-La Roche Inc., priority 2011, dated 2014).
